#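 48-hour exposure; five concentrations; linearly interpolated endpoints. At the GI50, growth is halved.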 Active and inactive are the calls of the source. Cut-off read from the data, not from the text of the source: active = GI50 up to about 1.1 µM and inactive = higher.
# What was measured:
# Assay in all cases: NCI-60 cell line screen, 48 h
# UACC-257 = test system: UACC-257
# HCT-15 = test system: HCT-15
# LOX IMVI = test system: LOX IMVI
# NCI-H23 = test system: NCI-H23
# CCRF-CEM = test system: CCRF-CEM
# SK-MEL-2 = test system: SK-MEL-2
# IGROV-1 = test system: IGROV-1
# MDA-N = test system: MDA-N
# Hs-578T = test system: Hs-578T
# EKVX = test system: EKVX
# U-251 = test system: U-251
# UO-31 = test system: UO-31
# SN12C = test system: SN12C
# OVCAR-5 = test system: OVCAR-5
# NCI-H460 = test system: NCI-H460
# HOP-62 = test system: HOP-62
# NCI/ADR-RES = test system: NCI/ADR-RES
# HL-60 = test system: HL-60
# CAKI-1 = test system: CAKI-1
# K562 = test system: K562
# A549 = test system: A549
# HT-29 = test system: HT-29
# RPMI-8226 = test system: RPMI-8226
# Malme-3M = test system: Malme-3M
# SF-268 = test system: SF-268
# SW-620 = test system: SW-620
# NCI-H522 = test system: NCI-H522
# PC-3 = test system: PC-3
# COLO 205 = test system: COLO 205
# SF-539 = test system: SF-539
# SK-OV-3 = test system: SK-OV-3
# HCC 2998 = test system: HCC 2998
# OVCAR-4 = test system: OVCAR-4
# SK-MEL-5 = test system: SK-MEL-5
# SR = test system: SR
# NCI-H226 = test system: NCI-H226
# ACHN = test system: ACHN
# M14 = test system: M14
# 786-0 = test system: 786-0
# SK-MEL-28 = test system: SK-MEL-28
# SF-295 = test system: SF-295
# MOLT-4 = test system: MOLT-4
# SNB-19 = test system: SNB-19
# OVCAR-3 = test system: OVCAR-3
# RXF 393 = test system: RXF 393
# HCT-116 = test system: HCT-116
# TK-10 = test system: TK-10
# T47D = test system: T47D
# DU-145 = test system: DU-145
# UACC-62 = test system: UACC-62
# MCF7 = test system: MCF7
# HOP-92 = test system: HOP-92
# MDA-MB-435 = test system: MDA-MB-435
# OVCAR-8 = test system: OVCAR-8
# BT-549 = test system: BT-549
# KM12 = test system: KM12
# A498 = test system: A498
# MDA-MB-231 = test system: MDA-MB-231
# SNB-75 = test system: SNB-75
smiles,measurement,setting,value
O=C(Nc1ccccc1)OC1OC(COC(=O)c2ccccc2)C(OC(=O)c2ccccc2)C1OS(=O)(=O)c1ccc([N+](=O)[O-])cc1 (configuration not stated),GI50,UACC-257,> 100 µM (inactive)
same,GI50,HCT-15,> 100 µM
same,GI50,LOX IMVI,> 100 µM (inactive)
same,GI50,NCI-H23,> 100 µM (inactive)
same,GI50,CCRF-CEM,> 100 µM (inactive)
same,GI50,SK-MEL-2,> 100 µM (inactive)
same,GI50,IGROV-1,> 100 µM (inactive)
same,GI50,MDA-N,> 100 µM (inactive)
same,GI50,Hs-578T,78.7 µM (inactive)
same,GI50,EKVX,63.8 µM (inactive)
same,GI50,U-251,> 100 µM (inactive)
same,GI50,UO-31,> 100 µM (inactive)
same,GI50,SN12C,> 100 µM (inactive)
same,GI50,OVCAR-5,> 100 µM (inactive)
same,GI50,NCI-H460,> 100 µM (inactive)
same,GI50,HOP-62,> 100 µM (inactive)
same,GI50,NCI/ADR-RES,> 100 µM (inactive)
same,GI50,HL-60,86.7 µM (inactive)
same,GI50,CAKI-1,> 100 µM (inactive)
same,GI50,K562,> 100 µM (inactive)
same,GI50,A549,> 100 µM (inactive)
same,GI50,HT-29,> 100 µM (inactive)
same,GI50,RPMI-8226,> 100 µM (inactive)
same,GI50,Malme-3M,> 100 µM (inactive)
same,GI50,SF-268,> 100 µM (inactive)
same,GI50,SW-620,> 100 µM (inactive)
same,GI50,NCI-H522,40.3 µM (inactive)
same,GI50,PC-3,> 100 µM (inactive)
same,GI50,COLO 205,> 100 µM (inactive)
same,GI50,SF-539,> 100 µM (inactive)
same,GI50,SK-OV-3,> 100 µM (inactive)
same,GI50,HCC 2998,> 100 µM (inactive)
same,GI50,OVCAR-4,> 100 µM (inactive)
same,GI50,SK-MEL-5,> 100 µM (inactive)
same,GI50,SR,> 100 µM (inactive)
same,GI50,NCI-H226,> 100 µM (inactive)
same,GI50,ACHN,> 100 µM (inactive)
same,GI50,M14,> 100 µM (inactive)
same,GI50,786-0,> 100 µM (inactive)
same,GI50,SK-MEL-28,> 100 µM (inactive)
same,GI50,SF-295,> 100 µM (inactive)
same,GI50,MOLT-4,> 100 µM (inactive)
same,GI50,SNB-19,> 100 µM (inactive)
same,GI50,OVCAR-3,74.6 µM (inactive)
same,GI50,RXF 393,> 100 µM (inactive)
same,GI50,HCT-116,> 100 µM (inactive)
same,GI50,TK-10,> 100 µM (inactive)
same,GI50,T47D,> 100 µM (inactive)
same,GI50,DU-145,> 100 µM (inactive)
same,GI50,UACC-62,> 100 µM (inactive)
same,GI50,MCF7,> 100 µM (inactive)
same,GI50,HOP-92,> 100 µM (inactive)
same,GI50,MDA-MB-435,> 100 µM (inactive)
same,GI50,OVCAR-8,> 100 µM (inactive)
same,GI50,BT-549,> 100 µM (inactive)
same,GI50,KM12,> 100 µM (inactive)
same,GI50,A498,> 100 µM (inactive)
CN(C)CC1CCC/C(=C\c2ccc(Cl)c(Cl)c2)C1=O (configuration not stated),GI50,UACC-257,7.71 µM (inactive)
same,GI50,HCT-15,2.41 µM
same,GI50,NCI-H23,8.45 µM (inactive)
same,GI50,CCRF-CEM,0.843 µM (active)
same,GI50,SK-MEL-2,6.52 µM (inactive)
same,GI50,IGROV-1,3.56 µM (inactive)
same,GI50,MDA-N,3.42 µM (inactive)
same,GI50,Hs-578T,2.99 µM (inactive)
same,GI50,EKVX,10.8 µM (inactive)
same,GI50,U-251,2.65 µM (inactive)
same,GI50,UO-31,2.74 µM (inactive)
same,GI50,SN12C,3.42 µM (inactive)
same,GI50,OVCAR-5,21 µM (inactive)
same,GI50,NCI-H460,9.2 µM (inactive)
same,GI50,HOP-62,9.04 µM (inactive)
same,GI50,NCI/ADR-RES,3.05 µM (inactive)
same,GI50,HL-60,1.97 µM (inactive)
same,GI50,CAKI-1,2.59 µM (inactive)
same,GI50,K562,1.93 µM (inactive)
same,GI50,A549,15.1 µM (inactive)
same,GI50,HT-29,8.45 µM (inactive)
same,GI50,RPMI-8226,0.205 µM (active)
same,GI50,MDA-MB-231,4.65 µM (inactive)
same,GI50,Malme-3M,4.42 µM (inactive)
same,GI50,SF-268,4.04 µM (inactive)
same,GI50,NCI-H522,2.13 µM (inactive)
same,GI50,COLO 205,2.67 µM (inactive)
same,GI50,SF-539,5.2 µM (inactive)
same,GI50,SK-OV-3,6.78 µM (inactive)
same,GI50,HCC 2998,10.7 µM (inactive)
same,GI50,OVCAR-4,3.05 µM (inactive)
same,GI50,SK-MEL-5,9.82 µM (inactive)
same,GI50,SR,1.08 µM (active)
same,GI50,NCI-H226,11.4 µM (inactive)
same,GI50,ACHN,4.18 µM (inactive)
same,GI50,M14,3.83 µM (inactive)
same,GI50,786-0,1.75 µM (inactive)
same,GI50,SK-MEL-28,5.14 µM (inactive)
same,GI50,SF-295,12.4 µM (inactive)
same,GI50,MOLT-4,1.44 µM (inactive)
same,GI50,SNB-19,7.23 µM (inactive)
same,GI50,OVCAR-3,4.31 µM (inactive)
same,GI50,SNB-75,7.41 µM (inactive)
same,GI50,HCT-116,1.97 µM (inactive)
same,GI50,TK-10,3.31 µM (inactive)
same,GI50,T47D,2.31 µM (inactive)
same,GI50,DU-145,10.9 µM (inactive)
same,GI50,UACC-62,3.61 µM (inactive)
same,GI50,MCF7,1.64 µM (inactive)
same,GI50,HOP-92,4.38 µM (inactive)
same,GI50,MDA-MB-435,6.38 µM (inactive)
same,GI50,OVCAR-8,3.18 µM (inactive)
same,GI50,BT-549,2.33 µM (inactive)
same,GI50,KM12,1.84 µM (inactive)
same,GI50,A498,13.9 µM (inactive)
